Measurements from patent publication US20230172204A1 (BASF SE, priority 2020, published 2023).

Experiments:
[1] = test system: Phakopsora pachyrhizi (F129L); assay: Protective control of soybean rust on soybeans (PHAKPA P2); assay type: in vivo; conditions: for PHAKPA (F129L) Disease level (%) P2 at 16 ppm / PHAKPA (F129L) Disease level (%) P2 at 4 ppm: P2 protective, % diseased leaf area; for % PHAKPA (F129L) Disease level P2 at 4 ppm: protective P2, 4 ppm; for % PHAKPA (F129L) Disease level P2 at 4 ppm / % PHAKPA (F129L) Disease level P2 at 16 ppm: soybean rust F129L; for % PHAKPA (F129L) Disease level P2 at 16 ppm: protective P2, 16 ppm
[2] = test system: Phakopsora pachyrhizi (F129L); assay: Protective control of soybean rust on soybeans (PHAKPA P6); assay type: in vivo; conditions: for PHAKPA (F129L) Disease level (%) P6 at 16 ppm / PHAKPA (F129L) Disease level (%) P6 at 4 ppm: P6 protective, % diseased leaf area; for % PHAKPA (F129L) Disease level P6 at 4 ppm: protective P6, 4 ppm; for % PHAKPA (F129L) Disease level P6 at 4 ppm / % PHAKPA (F129L) Disease level P6 at 16 ppm: soybean rust F129L; for % PHAKPA (F129L) Disease level P6 at 16 ppm: protective P6, 16 ppm

SMILES | PHAKPA (F129L) Disease level (%) P2 at 16 ppm [1] [%] | % PHAKPA (F129L) Disease level P2 at 4 ppm [1] [%] | % PHAKPA (F129L) Disease level P2 at 16 ppm [1] [%] | PHAKPA (F129L) Disease level (%) P6 at 16 ppm [2] [%] | % PHAKPA (F129L) Disease level P6 at 4 ppm [2] [%] | % PHAKPA (F129L) Disease level P6 at 16 ppm [2] [%] | PHAKPA (F129L) Disease level (%) P2 at 4 ppm [1] [%] | PHAKPA (F129L) Disease level (%) P6 at 4 ppm [2] [%]
CO/N=C(/C(=O)OC)c1cccc(C)c1CO/N=C(\C)c1ccc(C#N)cc1 [Ex. 155] | 23 | 97 | 30 | 18 | 93 | 20 |  | 
CO/N=C(/C(=O)OC)c1cccc(CF)c1CO/N=C(\C)c1cccc(C(F)(F)F)c1 [compound 25] |  | 16 | 3 |  | 50 | 2 |  | 
C#Cc1ccc(/C(C)=N/OCc2c(C)cccc2/C(=N\OC)C(=O)OC)cc1 [compound 172] |  | 35 | 1 |  | 83 | 12 |  | 
CNC(=O)/C(=N/OC)c1cccc(C)c1CO/N=C(\C)c1cc(C(F)(F)F)cc(F)c1NC [compound 238] |  | 100 | 53 |  | 100 | 77 |  | 
CO/N=C(/C(=O)OC)c1cccc(C)c1CO/N=C(\C)c1cc(Br)cc(F)c1F [compound 240] |  | 70 | 8 |  | 73 | 3 |  | 
CO/N=C(/C(=O)OC)c1cccc(C)c1CO/N=C(\C)c1c(F)ccc(C(F)(F)F)c1F [compound 156] |  | 27 | 0 |  | 47 | 3 |  | 
CNC(=O)/C(=N/OC)c1ccccc1CO/N=C(\C)c1cc(Cl)cc(Cl)c1 [reference compound] |  |  |  |  |  |  | 100 | 97
CO/N=C(/C(=O)OC)c1cccc(C)c1CO/N=C(\C)c1cc(C)ccc1C [compound 203] |  | 87 | 32 |  | 93 | 32 |  | 
CNC(=O)/C(=N/OC)c1cccc(C)c1CO/N=C(\C)c1c(F)cc(Br)cc1C(F)(F)F [compound 358] |  | 77 | 17 |  | 83 | 18 |  | 
CNC(=O)/C(=N/OC)c1cccc(C)c1CO/N=C(\C)c1cccc(Br)c1 [Ex. 58] |  | 2 | 0 |  | 4 | 0 | 0 | 4
COC=C(C(=O)OC)c1cccc(C)c1CON=C(C)c1ccccc1C(F)(F)F [Ex. 244] | 0 | 14 | 0 | 2 | 15 | 2 |  | 
CO/N=C(/C(=O)OC)c1cccc(C)c1CO/N=C(\C)c1cc(C2CC2)cc(C(F)(F)F)c1 [compound 145] |  | 28 | 8 |  | 37 | 16 |  | 
CO/N=C(/C(=O)OC)c1cccc(C)c1CO/N=C(\C)c1ccc(OC(F)(F)F)cc1 [compound 133] |  | 1 | 0 |  | 2 | 0 |  | 
CNC(=O)/C(=N/OC)c1cccc(C)c1CO/N=C(\C)c1cc(Cl)ccc1Cl [Ex. 130] |  | 20 | 1 |  | 40 | 1 | 33 | 67
CO/N=C(/C(=O)OC)c1ccccc1CO/N=C(\C)c1ccccc1 [reference compound] | 87 |  |  | 43 |  |  |  | 
CO/N=C(/C(=O)OC)c1cccc(C)c1CO/N=C(\C)c1c(F)cc(F)cc1OC(F)(F)F [compound 361] |  | 80 | 18 |  | 88 | 31 |  | 
CNC(=O)/C(=N/OC)c1cccc(C)c1CO/N=C(\C)c1ccccc1CC(F)(F)F [compound 223] |  | 4 | 0 |  | 28 | 0 |  | 
CNC(=O)/C(=N/OC)c1ccccc1CO/N=C(\C)c1ccc(C)cc1 [reference compound] |  |  |  |  |  |  | 100 | 100

SMILES | PHAKPA (F129L) Disease level (%) P2 at 16 ppm [1] [%] | % PHAKPA (F129L) Disease level P2 at 4 ppm [1] [%] | % PHAKPA (F129L) Disease level P2 at 16 ppm [1] [%] | PHAKPA (F129L) Disease level (%) P6 at 16 ppm [2] [%] | % PHAKPA (F129L) Disease level P6 at 4 ppm [2] [%] | % PHAKPA (F129L) Disease level P6 at 16 ppm [2] [%] | PHAKPA (F129L) Disease level (%) P2 at 4 ppm [1] [%] | PHAKPA (F129L) Disease level (%) P6 at 4 ppm [2] [%]
CO/N=C(/C(=O)OC)c1cccc(C)c1CO/N=C(\C)c1cccc(Br)c1F [compound 134] |  | 37 | 10 |  | 22 | 7 |  | 
CO/N=C(/C(=O)OC)c1cccc(C)c1CO/N=C(\C)c1ccccc1C(C)C [compound 218] |  | 100 | 87 |  | 100 | 100 |  | 
CNC(=O)/C(=N/OC)c1ccccc1CO/N=C(\C)c1ccccc1Br [reference compound] | 23 |  |  | 28 |  |  |  | 
CO/N=C(/C(=O)OC)c1cccc(C)c1CO/N=C(\C)c1ccc(Cc2ccccc2)cc1C(F)(F)F [compound 408] |  | 30 | 12 |  | 33 | 13 |  | 
CNC(=O)/C(=N/OC)c1cccc(C)c1CO/N=C(\C)c1ccc(C#N)cc1C(F)(F)F [compound 424] |  | 100 | 27 |  | 97 | 50 |  | 
CNC(=O)/C(=N/OC)c1cccc(Br)c1CO/N=C(\C)c1ccccc1 [compound 396] |  | 3 | 0 |  | 4 | 0 |  | 
CNC(=O)/C(=N/OC)c1cccc(C)c1CO/N=C(\C)c1ccc(F)cc1OC(F)(F)F [compound 378] |  | 18 | 1 |  | 17 | 1 |  | 
CNC(=O)/C(=N/OC)c1cccc(C)c1CO/N=C(\C)c1ccc(-c2ccccc2)cc1C(F)(F)F [compound 413] |  | 40 | 15 |  | 33 | 15 |  | 
C=Cc1cccc(/C(=N\OC)C(=O)NC)c1CO/N=C(\C)c1ccccc1 [compound 400] |  | 2 | 0 |  | 8 | 0 |  | 
CO/N=C(/C(=O)OC)c1cccc(C)c1CO/N=C(\C)c1cc(Br)ccc1F [compound 138] |  | 47 | 2 |  | 35 | 1 |  | 
COC=C(C(=O)OC)c1cccc(C)c1CON=C(C)c1ccc(Cl)c(F)c1OC(F)(F)F [compound 452] |  | 60 | 6 |  | 70 | 14 |  | 
CO/N=C(/C(=O)OC)c1cccc(C)c1CO/N=C(\C)c1cc(F)ccc1F [compound 118] |  | 10 | 0 |  | 32 | 0 |  | 
C=C(C)c1cccc(/C(=N\OC)C(=O)NC)c1CO/N=C(\C)c1ccccc1 [compound 399] |  | 67 | 8 |  | 90 | 15 |  | 
CNC(=O)/C(=N/OC)c1cccc(C)c1CO/N=C(\C)c1c(F)cccc1F [compound 214] |  | 14 | 0 |  | 28 | 4 |  | 
C#Cc1cccc(/C(C)=N/OCc2c(C)cccc2/C(=N\OC)C(=O)NC)c1 [compound 54] |  | 0 | 1 |  | 20 | 0 |  | 
CNC(=O)/C(=N/OC)c1cccc(C)c1CO/N=C(\C)c1ccccc1C1(C)CC1 [compound 296] |  | 100 | 40 |  | 100 | 83 |  | 
CO/N=C(/C(=O)OC)c1cccc(C)c1CO/N=C(\C)c1ccc(OC(F)(F)F)cc1C [compound 259] |  | 80 | 17 |  | 93 | 40 |  | 
CO/N=C(/C(=O)OC)c1cccc(C)c1CO/N=C(\C)c1ccccc1C#N [compound 224] |  | 97 | 100 |  | 100 | 100 |  | 
